This passage reports Ki results from US7981896B2 (Athersys, Inc., priority 2006, dated 2011).

The test addresses T1, human histamine H3 receptor (Homo sapiens, UniProt Q9Y5N1).
T1 construct: endogenous in cells; host or cells: HT1080-Gqαi5 RAGE clone (RAGE-H3), human fibrosarcoma line; integrated RAGE vector pFG8-HH3 supplies exon 1, the cell's own gene supplies the other exons
Description: Competition radioligand binding assay with [125I]iodoproxyfan on membranes of RAGE-H3 (HT1080-Gqαi5) cells expressing human H3 receptor. The conditions noted are these: ~0.15 nM [125I]iodoproxyfan, 1.5 hrs at room temperature, head does not name the quantity (apparent Ki by Cheng-Prussof). The protocol:
Representative compounds of the present invention that were prepared by the procedures of Examples 1-83 were evaluated in binding assays against cells expressing human H3 receptor by the following procedure.
[^125I]iodoproxyfan (2000 Ci/mmol) was obtained from Amersham Bioscience (Piscataway, N.J.). All other chemicals were either from Sigma-Aldrich (St. Louis, Mo.) or Tocris Cookson Inc. (Ellisville, Mo.).
The human histamine H3 receptor was stably expressed in HT1080 cells containing the chimeric G-protein, Gq[…]i5 (Coward et al., Anal Biochem 1999; 270:242-8). HT1080-Gqαi5 cells were grown in alpha-modified MEM containing 10% fetal bovine serum and 7 μg/ml blasticidin at 37° C. in 5% CO2/95% atmosphere. Cells (4.8×10^9) were irradiated with 50 rads from a ^137Cs source and the pFG8-HH3 RAGE (Random Activation of Gene Expression; see Harrington et al., Nature Biotechnology. 2001; 19:440-45) vector was subsequently integrated into the cells via electroporation (250V, 600 μF, 50Ω). The RAGE vector pFG8-HH3 contained cDNA sequence coding for the first exon (83 amino acids) of human H3 receptor. After electroporation, cells were plated in T75 flasks and grown in alpha-modified MEM. The culture medium was replaced 48 hrs after electroporation with alpha-modified MEM, 10% fetal bovine serum, 500 μg/ml hygromycin B and 3 μg/ml puromycin. Medium was replaced every four days during cell expansion. To identify RAGE activated cells expressing the H3 receptor, pools of approximately 10,000 colonies (5×10^7-1.5×10^8 cells total) were screened by PCR for the desired gene product (using primers specific to the RAGE vector and exon 2 of the H3 receptor). […] Positive 100 cells/well pools were identified by PCR, confirmed by sequencing, and subsequently subcloned to 0.8 cells/well. Once clones expressing the H3 receptor were identified by PCR analysis, assays (FLIPR or radioligand binding) were performed to confirm that the activated gene produced functional protein. The protein expression in the initial clones obtained from the RAGE library was increased by growth in the presence of methotrexate. Since the integrated RAGE vector contains the DHFR gene, such treatment selects for cells that have amplified the genetic locus containing the RAGE insert. Subclones obtained after methotrexate amplification were tested for functional activity in FLIPR assays to identify the clone that was most suitable for HTS. The final HT1080-Gqαi5 RAGE clone (RAGE-H3) expressing the human histamine H3 receptor was grown in alpha-modified MEM containing 10% fetal bovine serum, 3 μg/ml puromycin, 500 μg/ml hygromycin B, 3.2 μM methotrexate at 37° C. in 5% CO2/95% atmosphere.
RAGE-H3 cells (10^9) were washed twice with cold PBS, scraped off the plates, and centrifuged at 1000×g for 5 minutes. Cells were resuspended in ice-cold 10 mM Tris HCl, pH 7.4, containing 5 mM EDTA and protease inhibitor cocktail tablets (Roche Molecular Biochemicals). After incubating on ice for 10 min, the cells were homogenized with a dounce homogenizer or a polytron tissue grinder, and centrifuged at 1000×g for 10 min at 4° C. The resulting supernatant was centrifuged at 32,000×g for 30 min at 4° C. The membrane pellets were resuspended in 50 mM Tris HCl, pH 7.4, and stored at −80° C. until use. Protein concentration was determined by the Bradford method (Bio-Rad Laboratories, CA).
Binding assays were carried out in 96-well polypropylene plates in 50 mM Tris HCl, pH 7.4, containing 1 mM EDTA. Reaction mixtures contained 100 μl of membrane suspension, 50 μl of 4% DMSO, and 50 μl of increasing amounts of [^125I]iodoproxyfan (final concentration 0.0005-1.8 nM for human H3 receptor saturation binding assay). Nonspecific binding was defined by adding 10 μM clobenpropit to the reaction mixtures. […]

pKi: −log10 of the molar value. Where only a bound is given, the exact number is not on record here.

T1 sequence (Q9Y5N1 whole entry): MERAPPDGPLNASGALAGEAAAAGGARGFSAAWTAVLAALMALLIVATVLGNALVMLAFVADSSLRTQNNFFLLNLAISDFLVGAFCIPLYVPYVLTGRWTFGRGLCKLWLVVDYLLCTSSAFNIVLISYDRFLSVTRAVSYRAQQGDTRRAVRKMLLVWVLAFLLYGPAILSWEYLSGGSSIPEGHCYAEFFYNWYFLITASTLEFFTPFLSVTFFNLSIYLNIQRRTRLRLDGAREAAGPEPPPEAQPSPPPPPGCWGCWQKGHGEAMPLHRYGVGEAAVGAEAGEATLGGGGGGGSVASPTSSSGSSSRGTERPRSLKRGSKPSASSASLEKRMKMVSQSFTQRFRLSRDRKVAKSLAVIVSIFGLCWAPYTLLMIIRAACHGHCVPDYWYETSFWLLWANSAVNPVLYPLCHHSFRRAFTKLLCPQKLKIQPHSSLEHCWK

For the compound “3-Methyl-1-[4-(3-piperidin-1-yl-propoxy)-phenyl]-1,4,5,6-tetrahydro-cyclopentapyrazole [Example 59]”, the pKi is above 8.00.

“3-Phenyl-1-[4-(3-pyrrolidin-1-ylpropoxy)phenyl]-4,5,6,7-tetrahydro-1H-indazole [Example 43]”: the negative-log Ki (pKi) was above 6.00.

On to “3-Phenyl-1-[4-(3-pyrrolidin-1-ylpropoxy)phenyl]-4,5,6,7-tetrahydro-2H-indazole [Example 44]”, for which the pKi is above 7.00.

In the case of `Cc1nn(-c2ccc(OCCCN3CCCC3)cc2)c2c1CC[C@@H]1CCCC[C@@H]21` (relative stereo) [Example 5, 3-Methyl-1-[4-(3-pyrrolidin-1-ylpropoxy)phenyl]-4,5,5a,6,7,8,9,9a-octahydro-1H-benzo[g]indazole], the pKi was above 9.00.

In the case of `Cc1c2c(nn1-c1ccc(OCCCN3CCCC3)cc1)[C@H]1CCCC[C@@H]1CC2` (relative stereo) [Example 6, 3-Methyl-2-[4-(3-pyrrolidin-1-ylpropoxy)phenyl]-4,5,5a,6,7,8,9,9a-octahydro-2H-benzo[g]indazole], the pKi is above 8.00.

On to `Cc1nn(-c2ccc(OCCCN3CCCC3)cc2)c2c1CCc1ccccc1-2` [Example 1, 3-Methyl-1-[4-(3-pyrrolidin-1-ylpropoxy)phenyl]-4,5-dihydro-1H-benzo[g]indazole], for which the negative-log Ki (pKi) was above 8.00.

For `Cc1nn(-c2ccc(OCCCN3CCC[C@H]3C)cc2)c2c1CCc1ccccc1-2` [Example 2, 3-Methyl-1-{4-[3-(2R-methylpyrrolidin-1-yl)propoxy]phenyl}-4,5-dihydro-1H-benzo[g]indazole], the pKi was above 8.00.

Turning to `Cc1nn(-c2ccc(OCCCN3CCOCC3)cc2)c2c1CCc1ccccc1-2` [Example 3, 3-Methyl-1-[4-(3-morpholin-1-ylpropoxy)phenyl]-4,5-dihydro-1H-benzo[g]indazole], the pKi was above 8.00.

As to `FC(F)(F)c1cc(/C=C/c2ccccc2)n(-c2ccc(OCCCN3CCCC3)cc2)n1` [Example 4, 1-[4-(3-Pyrrolidin-1-ylpropoxy)phenyl]-5-styryl-3-trifluoromethyl-1H-pyrazole], the pKi is above 7.00.

`COc1ccc2c(c1)-c1c(c(C)nn1-c1ccc(OCCCN3CCCC3)cc1)CC2` [Example 7, 8-Methoxy-3-methyl-1-[4-(3-pyrrolidin-1-ylpropoxy)phenyl]-4,5-dihydro-1H-benzo[g]indazole]: the pKi was above 7.00.

For `Cc1cc(C(=O)NC2CCCCC2)n(-c2ccc(OC3CCN(C4CCCC4)CC3)cc2)n1` [Example 10, 2-[4-(1-Cyclopentyl-piperidin-4-yloxy)phenyl]-5-methyl-2H-pyrazole-3-carboxylic acid cyclohexylamide], the negative-log Ki (pKi) is above 8.00.

Regarding `Cc1cc(C(=O)NC2CCCCC2)n(-c2ccc(OC3CCN(C4CCCCC4)CC3)cc2)n1` [Example 11, 2-[4-(1-Cyclohexylpiperidin-4-yloxy)phenyl]-5-methyl-2H-pyrazole-3-carboxylic acid cyclohexylamide], the negative logarithm of the Ki (pKi) is above 8.00.

Consider `Cc1cc(C(=O)NC2CCCCC2)n(-c2ccc(OC3CCN(C(C)C)CC3)cc2)n1` [Example 12, 2-[4-(1-Isopropylpiperidin-4-yloxy)phenyl]-5-methyl-2H-pyrazole-3-carboxylic acid cyclohexylamide], for which the negative logarithm of the Ki (pKi) was above 8.00.

Turning to `Cc1cc(C(=O)NC2CCCCC2)n(-c2ccc(OC3CCN(C4CCC4)CC3)cc2)n1` [Example 13, 2-[4-(1-Cyclobutylpiperidin-4-yloxy)phenyl]-5-methyl-2H-pyrazole-3-carboxylic acid cyclohexylamide], the pKi was above 8.00.

Turning to `Cc1cc(CO)n(-c2ccc(OCCCN3CCCC3)cc2)n1` [Example 14, {5-Methyl-2-[4-(3-pyrrolidin-1-ylpropoxy)phenyl]-2H-pyrazol-3-yl}methanol], the pKi was above 8.00.

`c1ccc2nn(-c3ccc(OCCCN4CCCC4)cc3)cc2c1` [Example 18, 2-[4-(3-Pyrrolidin-1-ylpropoxy)phenyl]-2H-indazole]: the pKi was above 7.00.

For the compound `c1ccc2c(c1)cnn2-c1ccc(OCCCN2CCCC2)cc1` [Example 20, 1-[4-(3-Pyrrolidin-1-ylpropoxy)phenyl]-1H-indazole], the negative logarithm of the Ki (pKi) was above 8.00.

As for `CCc1cc(CC)n(-c2ccc(OCCCN3CCCC3)cc2)n1` [Example 21, 3,5-Diethyl-1-[4-(3-pyrrolidin-1-ylpropoxy)phenyl]-1H-pyrazole], the negative-log Ki (pKi) is above 8.00.

With `CCc1cc(CC)n(-c2ccc(OCCCN3CCCCC3)cc2)n1` [Example 22, 3,5-Diethyl-1-[4-(3-piperidin-1-ylpropoxy)phenyl]-1H-pyrazole], the negative logarithm of the Ki (pKi) is above 8.00.

Take `CCc1cc(CC)n(-c2ccc(OCCCN3CCOCC3)cc2)n1` [Example 23, 3,5-Diethyl-1-[4-(3-morpholin-1-ylpropoxy)phenyl]-1H-pyrazole]: the negative logarithm of the Ki (pKi) is above 6.00.

Turning to `CC(C)c1cc(C(C)C)n(-c2ccc(OCCCN3CCCC3)cc2)n1` [Example 24, 3,5-Diisopropyl-1-[4-(3-pyrrolidin-1-yl-propoxy)-phenyl]-1H-pyrazole], the pKi is above 8.00.

On to `CC(C)c1cc(C(C)C)n(-c2ccc(OCCCN3CCCCC3)cc2)n1` [Example 25, 3,5-Diisopropyl-1-[4-(3-piperidin-1-yl-propoxy)-phenyl]-1H-pyrazole], for which the negative-log Ki (pKi) was above 8.00.

`Cc1cc(C(C)(C)C)nn1-c1ccc(OCCCN2CCCC2)cc1` [Example 26, 3-tert-Butyl-5-methyl-1-[4-(3-pyrrolidin-1-ylpropoxy)-phenyl]-1H-pyrazole]: the pKi is above 8.00.

`Cc1cc(C(C)(C)C)nn1-c1ccc(OCCCN2CCCCC2)cc1` [Example 27, 3-tert-Butyl-5-methyl-1-[4-(3-piperidin-1-ylpropoxy)-phenyl]-1H-pyrazole]: the pKi was above 8.00.

Regarding `Cc1cc(CC(C)C)n(-c2ccc(OCCCN3CCCC3)cc2)n1` [Example 28, 5-Isobutyl-3-methyl-1-[4-(3-pyrrolidin-1-ylpropoxy)-phenyl]-1H-pyrazole], the negative-log Ki (pKi) was above 7.00.

`Cc1cc(CC(C)C)n(-c2ccc(OCCCN3CCCCC3)cc2)n1` [Example 29, 5-Isobutyl-3-methyl-1-[4-(3-piperidin-1-ylpropoxy)-phenyl]-1H-pyrazole]: the negative logarithm of the Ki (pKi) was above 7.00.

Regarding `Cc1cc(CC(C)C)nn1-c1ccc(OCCCN2CCCCC2)cc1` [Example 30], the negative-log Ki (pKi) was above 8.00.

For `Cc1cc(CC(C)C)nn1-c1ccc(OCCCN2CCCC2)cc1` [Example 31], the pKi is above 8.00.

Turning to `CC(C)c1cc(C(C)C)n(-c2ccc(OC3CCN(C4CCC4)CC3)cc2)n1` [Example 32, 1-Cyclobutyl-4-[4-(3,5-diisopropylpyrazol-1-yl)phenoxy]piperidine], the pKi is above 8.00.

For `Cc1cc(C(C)(C)C)n(-c2ccc(OCCCN3CCCC3)cc2)n1` [Example 33, 5-tert-Butyl-3-methyl-1-[4-(3-pyrrolidin-1-ylpropoxy)-phenyl]-1H-pyrazole], the pKi is above 8.00.

Turning to `Cc1cc(C(C)(C)C)n(-c2ccc(OCCCN3CCCCC3)cc2)n1` [Example 34, 5-tert-Butyl-3-methyl-1-[4-(3-piperidin-1-ylpropoxy)-phenyl]-1H-pyrazole], the pKi is above 7.00.

As for `Cc1nn(-c2ccc(OCCCN3CCCC3)cc2)c(C)c1C` [Example 36, 3,4,5-Trimethyl-1-[4-(3-pyrrolidin-1-ylpropoxy)phenyl]-1H-pyrazole], the pKi is above 8.00.

One may read the pKi as the negative decadic logarithm of the Ki, by convention in mol/L.
